These results are taken from patent US7820817B2, “Modulators of muscarinic receptors” (Vertex Pharmaceuticals Incorporated, priority 2004, dated 2010).

The test system of the experiment is at least one muscarinic receptor, M1, M2, M3, M4. Kind of experiment: Muscarinic modulation activity (Table 3). Further details: key: +++: exhibited muscarinic modulation activity for at least one muscarinic receptor, M1, M2, M3, M4, at a concentration of less than 5 μM; ++: exhibited muscarinic modulation activity for at least one muscarinic receptor, M1, M2, M3, M4, at a concentration of between 30 μM and 5 μM; +: exhibited muscarinic modulation activity for at least one muscarinic receptor, M1, M2, M3, M4, at a concentration of greater than 30 μM; −: were not assayed or did not exhibit muscarinic modulation activity for at least one muscarinic receptor, M1, M2, M3, M4, at the concentration at which the assay was performed. Particulars: concentration at which modulation of at least one muscarinic receptor, M1, M2, M3, M4, was exhibited; CHO cells. The experiment is classed as cell-based. The protocol: CHO cells expressing muscarinic receptors (M1 to M5) are grown as monolayers in tissue culture flasks at 37° C. in a humidified atmosphere containing 5% CO2 and passaged every 3-5 days. The growth media is Dulbecco's modified eagles medium (DMEM, Gibco Cat#12430-054), containing 25 mM Hepes and supplemented with Fetal Bovine Serum (Hyclone, cat#SH30071.03), 0.1 mM of MEM non-essential amino acids (GIBCO, Cat#11140-050), 1 mM MEM Sodium Pyruvate (GIBCO Cat#11360-070) and 100 units/ml of Penicillin G and 100 μg/ml of Streptomycin (GIBCO Cat#15140-122). The recombinant muscarinic receptor cell lines are grown under antibiotic pressure with media containing 25 μg/ml zeocin and 500 μg/ml G418 (M1-CHO), 4 μg/ml puromycin, 50 μg/ml zeocin and 2.5 μg/ml blasticidin (M2 and M4-CHO) or 50 μg/ml zeocin and 4 μg/ml puromycin (M3 and M5-CHO).
Cells are harvested at 80-90% confluence using Versene (GIBCO Cat#15040-066), collected by centrifugation and seeded 18-24 hrs prior to running the calcium assay at a density of 5,000-10,000 cells/well in […], clear-bottomed 384-well plates (BD Biocoat, poly-D-lysine, Cat#356663). The day of the experiment, the cells are washed with a plate washer (Bioteck Instruments, ELX 405) using bath1 buffer (140-mM NaCl, 4.5-mM KCl, 2-mM CaCl2, 1-mM MgCl2, 10-mM Hepes-Na, 10-mM Glucose, pH 7.4, with NaOH) containing 1 mM Probenecid. Next, the calcium dye Fluo-3 (25 μl/well of Fluo-3 AM at 4 μM, Molecular Probes F-1241, in Bath 1 buffer containing 1 mM Probenecid) is added to the 25 μl of Bath 1 remaining in each well after the plate wash and the dye is loaded at 37° C. in the tissue culture incubator for 60-90 min. The fluorescent dye is removed using the plate washer with Bath 1 containing 1 mM Probenecid, leaving 25 μl/well of this solution after the wash. Alternatively, cells can be loaded with the calcium indicator from Molecular Devices (Calcium 3 Assay Reagents, Cat #R7181) adding 5 μl of a 5× solution dye in Bath 1 containing 1 mM Probenecid (10 ml per dye flask cat#R7182 to generate a solution […]) to 20 μl of the same buffer. After loading for 60 min. the experiment can be run without having to remove the dye.
Compounds are prepared at a 2× fold concentration in a 96-well plate (round bottom, Costar Corning cat#3656), by reconstituting the pre-spotted compounds in bath 1 containing 1 mM probenecid. The final concentration DMSO is 0.5%, and the amount of DMSO is normalized across the assay plate. To determine an agonist action of the compounds on muscarinic receptors, the reconstituted compounds are added (25 μl compound/well) to the cell assay plate (containing 25 μl/well) using the multi-channel robotic system of the FLIPR 3 Instrument (Molecular Devices, Sunnyvale, Calif.). To determine a functional inhibitory action of the compounds on muscarinic receptors, the reconstituted compounds are added (25 μl compound/well) to the assay plate and pre-incubated for 15 min prior to adding 25 μl of Carbachol at 3× the EC80 for each muscarinic subtype. Alternatively, the compounds can be co-applied simultaneously with the agonist. In both assay modes, the fluorescence is recorded for 60 sec (excitation wavelength is […] and emission wavelength 540 nm) using the FLIPR 3 instrument.
The potency, efficacy and selectivity of the muscarinic compounds were evaluated by screening the compound activity across the whole family (M1 to M5 cells).
CHO cells expressing muscarinic receptors (M1 to M5) and containing a gene reporter system β-Lactamase) with transcriptional control mediated by calcium release (NFAT activation). See Zlokarnik, G; Negulescu, P. A.; Knapp, T. E.; Mere, L; Burres, N; Feng, L; Whitney, M; Roemer, K; Tsien, R. Y. Quantitation of transcription and clonal selection of single living cells with β-lactamase as reporter. Science, 1998 Jan. 2, 279(5347):84-8. The cells are grown as monolayers in tissue culture flasks at 37° C. in a humidified atmosphere containing 5% CO2 and passaged every 3-5 days. […]

Take `Cc1cc(C)nc(N2CCN(C3CC4CCC3C4)CC2)n1` (centres unmarked) [Compound 72, 4,6-dimethyl-2-(4-norbornan-2-ylpiperazin-1-yl)-pyrimidine]: the “ACTIVITY (muscarinic modulation activity)” value (shortened to “ACTIVITY”) is given as “−”.
Consider `N#Cc1nccnc1N1CCN(C2CC3CCC2C3)CC1` (centres unmarked) [Compound 43, 3-(4-norbornan-2-ylpiperazin-1-yl)pyrazine-2-carbonitrile], for which the “ACTIVITY” value is on record as “−”.
Regarding `c1ccc2c(c1)nnn2C1CCN(C2CC3CCC2C3)CC1` (centres unmarked) [Compound 50, 1-(1-norbornan-2-yl-4-piperidyl)-1H-benzotriazole], the “ACTIVITY” value is “++ (exhibited muscarinic modulation activity for at least one muscarinic receptor, M1, M2, M3, M4, at a concentration of between 30 μM and 5 μM)”.
Take `N#Cc1cccnc1N1CCN(CC2CC3C=CC2C3)CC1` (centres unmarked) [Compound 42, 2-[4-(5-bicyclo[2.2.1]hept-2-enylmethyl)piperazin-1-yl]nicotinonitrile]: the “ACTIVITY” value was “+++ (exhibited muscarinic modulation activity for at least one muscarinic receptor, M1, M2, M3, M4, at a concentration of less than 5 μM)”.
Consider `CCOC(=O)N1C2CCC1CC(N1CCN(c3nc(C)cc(C)c3C#N)CC1)C2` (centres unmarked) [Compound 78, 3-[4-(3-cyano-4,6-dimethyl-2-pyridyl)piperazin-1-yl]-8-azabicyclo[3.2.1]octane-8-carboxylic acid ethyl ester], for which the “ACTIVITY” value is “++ (exhibited muscarinic modulation activity for at least one muscarinic receptor, M1, M2, M3, M4, at a concentration of between 30 μM and 5 μM)”.
As to `c1cnc(N2CCN(C3CC4CCC3C4)CC2)cn1` (centres unmarked) [Compound 44, 2-(4-norbornan-2-ylpiperazin-1-yl)pyrazine], the “ACTIVITY” value is “++ (exhibited muscarinic modulation activity for at least one muscarinic receptor, M1, M2, M3, M4, at a concentration of between 30 μM and 5 μM)”.
In the case of `c1cnc(N2CCN(C3CC4CCC3C4)CC2)nc1` (centres unmarked) [Compound 71, 2-(4-norbornan-2-ylpiperazin-1-yl)pyrimidine], the “ACTIVITY” value is “++ (exhibited muscarinic modulation activity for at least one muscarinic receptor, M1, M2, M3, M4, at a concentration of between 30 μM and 5 μM)”.
For `CCc1cnc(N2CCN(CC3CC4CCC3C4)CC2)nc1` (centres unmarked) [Compound 22, 5-ethyl-2-[4-(norbornan-2-ylmethyl)piperazin-1-yl]-pyrimidine], the “ACTIVITY” value is “−”.
Regarding `Cc1cccc(N2CCN(CC3CC4C=CC3C4)CC2)n1` (centres unmarked) [Compound 15, 1-(5-bicyclo[2.2.1]hept-2-enylmethyl)-4-(6-methyl-2-pyridyl)-piperazine], the “ACTIVITY” value is “++ (exhibited muscarinic modulation activity for at least one muscarinic receptor, M1, M2, M3, M4, at a concentration of between 30 μM and 5 μM)”.
In the case of `CCOC(=O)N1C2CCC1CC(CN1CCN(c3ncccc3C#N)CC1)C2` (centres unmarked) [Compound 68, 3-[[4-(3-cyano-2-pyridyl)piperazin-1-yl]methyl]-8-azabicyclo[3.2.1]octane-8-carboxylic acid ethyl ester], the “ACTIVITY” value was “+++ (exhibited muscarinic modulation activity for at least one muscarinic receptor, M1, M2, M3, M4, at a concentration of less than 5 μM)”.
To `N#Cc1ccc(N2CCN(CC3CC4C=CC3C4)CC2)nc1` (centres unmarked) [Compound 13, 6-[4-(5-bicyclo[2.2.1]hept-2-enylmethyl)piperazin-1-yl]nicotinonitrile] belongs “+++ (exhibited muscarinic modulation activity for at least one muscarinic receptor, M1, M2, M3, M4, at a concentration of less than 5 μM)”.
Turning to `CCOC(=O)N1C2CCC1CC(N1CCN(c3ccncc3S(N)(=O)=O)CC1)C2` (centres unmarked) [Compound 49, 3-[4-(3-sulfamoyl-4-pyridyl)piperazin-1-yl]-8-azabicyclo[3.2.1]octane-8-carboxylic acid ethyl ester], the “ACTIVITY” value is on record as “+++ (exhibited muscarinic modulation activity for at least one muscarinic receptor, M1, M2, M3, M4, at a concentration of less than 5 μM)”.
As for `c1ccc(N2CCN(C3CC4CCC3C4)CC2)nc1` (centres unmarked) [Compound 65, 1-norbornan-2-yl-4-(2-pyridyl)piperazine], the “ACTIVITY” value was “++ (exhibited muscarinic modulation activity for at least one muscarinic receptor, M1, M2, M3, M4, at a concentration of between 30 μM and 5 μM)”.
On to `FC(F)(F)c1cnc(N2CCN(CC3CC4C=CC3C4)CC2)c(Cl)c1` (centres unmarked) [Compound 74, 1-(5-bicyclo[2.2.1]hept-2-enylmethyl)-4-[3-chloro-5-(trifluoromethyl)-2-pyridyl]-piperazine], for which the “ACTIVITY” value was “−”.
Regarding `CCOC(=O)N1C2CCC1CC(N1CCN(c3ncccc3C#N)CC1)C2` (centres unmarked) [Compound 12, 3-[4-(3-cyano-2-pyridyl)piperazin-1-yl]-8-azabicyclo[3.2.1]octane-8-carboxylic acid ethyl ester], the “ACTIVITY” value was “+++ (exhibited muscarinic modulation activity for at least one muscarinic receptor, M1, M2, M3, M4, at a concentration of less than 5 μM)”.
For `CCOC(=O)N1C2CCC1CC(N1CCN(c3ccc(C(N)=O)cn3)CC1)C2` (centres unmarked) [Compound 36, 3-[4-(5-carbamoyl-2-pyridyl)piperazin-1-yl]-8-azabicyclo[3.2.1]octane-8-carboxylic acid ethyl ester], the “ACTIVITY” value is “+++ (exhibited muscarinic modulation activity for at least one muscarinic receptor, M1, M2, M3, M4, at a concentration of less than 5 μM)”.
The value for `CCOC(=O)N1C2CCC1CC(N1CCN(c3cc(C#N)ccn3)CC1)C2` (centres unmarked) [Compound 56, 3-[4-(4-cyano-2-pyridyl)piperazin-1-yl]-8-azabicyclo[3.2.1]octane-8-carboxylic acid ethyl ester] was “+++ (exhibited muscarinic modulation activity for at least one muscarinic receptor, M1, M2, M3, M4, at a concentration of less than 5 μM)”.
For the compound `N#Cc1cccnc1N1CCN(CC2CCC3CCC2C3)CC1` (centres unmarked) [Compound 64, 2-[4-(4-bicyclo[3.2.1]octylmethyl)piperazin-1-yl]nicotinonitrile], the “ACTIVITY” value is “+ (exhibited muscarinic modulation activity for at least one muscarinic receptor, M1, M2, M3, M4, at a concentration of greater than 30 μM)”.
To `Cc1cccnc1N1CCN(CC2CC3C=CC2C3)CC1` (centres unmarked) [Compound 20, 2-[4-(5-bicyclo[2.2.1]hept-2-enylmethyl)piperazin-1-yl]-3-methyl-pyridine] belongs “+++ (exhibited muscarinic modulation activity for at least one muscarinic receptor, M1, M2, M3, M4, at a concentration of less than 5 μM)”.
As for `CCOC(=O)N1C2CCC1CC(N1CCN(c3ccc(C(F)(F)F)cn3)CC1)C2` (centres unmarked) [Compound 28, 3-[4-[5-(trifluoromethyl)-2-pyridyl]piperazin-1-yl]-8-azabicyclo[3.2.1]octane-8-carboxylic acid ethyl ester], the “ACTIVITY” value is on record as “+++ (exhibited muscarinic modulation activity for at least one muscarinic receptor, M1, M2, M3, M4, at a concentration of less than 5 μM)”.
